Read-outs that look alike come from different tables or passages of the source. Where only a bound is given, the exact number is not on record here.

Here are results for seven compounds from article PMC6271006, “Monoamine Oxidase Inhibitory Constituents of Propolis: Kinetics and Mechanism of Inhibition of Recombinant Human MAO-A and MAO-B” (Molecules, 2014).

Assay [1] deals with T1, recombinant human MAO-B (Homo sapiens, UniProt P27338).
T1 construct: purchased BD Biosciences (Bedford, MA, USA)
T1 sequence (P27338 1-520): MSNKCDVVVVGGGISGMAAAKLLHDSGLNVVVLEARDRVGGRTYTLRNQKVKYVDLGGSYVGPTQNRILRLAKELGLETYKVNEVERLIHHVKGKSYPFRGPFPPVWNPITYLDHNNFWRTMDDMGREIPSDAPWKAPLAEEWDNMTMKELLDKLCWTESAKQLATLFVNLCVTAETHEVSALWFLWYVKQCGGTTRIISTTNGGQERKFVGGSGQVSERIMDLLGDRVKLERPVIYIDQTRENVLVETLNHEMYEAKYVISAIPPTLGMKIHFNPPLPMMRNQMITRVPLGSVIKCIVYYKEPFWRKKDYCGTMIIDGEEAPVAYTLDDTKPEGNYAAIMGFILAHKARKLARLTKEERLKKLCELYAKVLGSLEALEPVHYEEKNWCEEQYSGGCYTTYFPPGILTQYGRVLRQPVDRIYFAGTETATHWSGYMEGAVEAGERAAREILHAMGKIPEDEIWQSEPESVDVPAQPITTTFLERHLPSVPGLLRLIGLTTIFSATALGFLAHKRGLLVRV
Briefly: Enzyme kinetics / inhibition mechanism, MAO-B (Ki, Lineweaver-Burk). In kind it is biochemical. The source says:
(§1) Based on dose-response inhibition, two concentrations of the inhibitors were selected, one below and another above IC50 value for the inhibition. For each experiment, three sets of assays were done at varying concentrations of the substrate, one control without inhibitors and with two concentrations of the inhibitor.
(§2) Controls without inhibitor were also run simultaneously.

In assay [2] the target is T2, recombinant human MAO-A (Homo sapiens, UniProt P21397).
T2 construct: purchased BD Biosciences (Bedford, MA, USA)
T2 sequence (P21397 1-527): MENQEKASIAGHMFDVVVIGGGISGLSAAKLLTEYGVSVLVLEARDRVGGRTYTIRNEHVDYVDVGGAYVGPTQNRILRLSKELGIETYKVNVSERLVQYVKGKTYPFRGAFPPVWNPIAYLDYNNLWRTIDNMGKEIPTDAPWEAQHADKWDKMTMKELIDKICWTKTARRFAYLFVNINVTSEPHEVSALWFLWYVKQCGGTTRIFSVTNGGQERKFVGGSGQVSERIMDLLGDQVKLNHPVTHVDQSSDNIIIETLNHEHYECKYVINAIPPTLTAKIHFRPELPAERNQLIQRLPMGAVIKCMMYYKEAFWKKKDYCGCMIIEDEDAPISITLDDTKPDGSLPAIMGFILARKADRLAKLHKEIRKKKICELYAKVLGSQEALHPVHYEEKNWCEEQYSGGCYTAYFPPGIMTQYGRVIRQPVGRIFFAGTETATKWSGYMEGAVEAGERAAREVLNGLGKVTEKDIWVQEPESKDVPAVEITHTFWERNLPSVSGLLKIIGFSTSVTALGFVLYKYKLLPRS
Briefly: Time-dependent enzyme inhibition, MAO-A. In kind it is biochemical. Conditions: pre-incubation 0-15 min; galangin 0.25 μM, apigenin 1.2 μM. The protocol: (§3) The controls without inhibitors were also run simultaneously. Activities of the enzymes were determined as described above and percentage of enzyme activity remaining was plotted against the preincubation time to determine time-dependent inhibition.
(§4) The controls without inhibitors were also run simultaneously. Activities of the enzymes were determined as described above and percentage of enzyme activity remaining was plotted against the preincubation time to determine time-dependent enzyme-inhibition.

For assay [3], the target named is T1, recombinant human MAO-B. Nature of the assay: MAO-B inhibition, kynuramine deamination assay (IC50). In kind it is biochemical. Conditions: pure compounds; 50 μM kynuramine; mean ± S.D. of triplicate; read-out: Monoamine Oxidase-B (IC50). The protocol:
(§5) To investigate the effect of the selected constituents on MAO-A and MAO-B, the kynuramine deamination assay was adapted for 96-well plates as described earlier. […] For MAO-A, the substrate concentration of 80 μM kynuramine was chosen because the apparent KM value for substrate binding reported previously was approximately 40 μM [48]. […] Similarly, for MAO-B, substrate concentration of 50 μM kynuramine was chosen. The assay was performed with the addition of inhibitor. Inhibition was calculated as percent of product formation compared to the corresponding control (enzyme-substrate reaction) without the inhibitors. The reactions were carried out in 0.1 M potassium phosphate buffer at pH 7.4. Incubations mixtures contained 5 μg/mL of MAO-A (50 μL in buffer) and 10 μg/mL of MAO-B (50 μL in buffer). The inhibitor was dissolved in DMSO or in buffer (if not dissolved in DMSO). The total reaction volume was 200 μL yielding a final DMSO concentration of 1.0% in the reaction mixture. The reaction mixtures were pre-incubated for 10 min at 37 °C followed by the addition of MAO-A/MAO-B to initiate the reactions. Reactions were incubated for 20 min at 37 °C and were stopped immediately by the addition of 75 μL of 2N NaOH. The formation of 4-hydroxyquinoline was determined fluorometrically by SpectraMax M5 fluorescence plate reader (Molecular Devices, Sunnyvale, CA, USA) with an excitation and emission wavelength of 320 nm and 380 nm, respectively, using the Soft Max Pro program. Appropriate controls with the test compounds, fractions and extracts, where the enzyme or the substrate was added after stopping the reaction were setup simultaneously to check interference with the fluorescence measurements.
(§6) IC50 values for inhibition of MAO-A and B by the selected constituents were determined using fixed concentration of substrate and varying concentration of the inhibitor.

In another assay the test system is MAO-A. More on the design: method as in not given. Conditions: mouse brain crude mitochondrial preparation, iso-enzyme specific substrates; earlier study, ref not given; cited from earlier work.
The target in assay [4] is T2, recombinant human MAO-A. Briefly: MAO-A inhibition, kynuramine deamination assay (IC50). In kind it is biochemical. The conditions noted are these: for IC50: pure compounds, 80 μM kynuramine, mean ± S.D. of triplicate, read-out: Monoamine Oxidase-A (IC50). The protocol: as §5, §6
The target in assay [5] is T1, recombinant human MAO-B. Nature of the assay: Reversibility of binding by enzyme-inhibitor complex dissociation dialysis, MAO-B. The conditions noted are these: for MAO-B activity recovery after dialysis: overnight dialysis. It is filed as biochemical. The protocol:
(§7) The characteristic binding of these inhibitors was also investigated by the enzyme-inhibitor complex dissociation by dialysis. High concentrations of the inhibitors were allowed to interact with the enzyme (MAO-A or B) for 20 min and the resulting enzyme-inhibitor complex mixtures were dialyzed overnight against buffer solutions. The catalytic activities of the enzymes were analyzed before and after the dialysis. The recombinant human MAO-A lost about 30% of the enzyme activity during overnight dialysis. […] After the dialysis about 70% and 80% activity of the enzyme was recovered from enzyme-galangin and enzyme-apigenin incubation mixtures. This observation indicated reversal of the enzyme activity due to formation of dissociable enzyme-inhibitor complex. […] The recombinant MAO-B lost about 30% of the enzyme activity during overnight dialysis.
(§8) Most of the inhibitors produce inhibition of the target enzyme through formation of an enzyme-inhibitor complex. Formation of the enzyme-inhibitor complex may be accelerated in presence of high concentration of the inhibitor. […] After 20 min incubation at 37 °C, the reaction was stopped by chilling the tubes on the ice bath. All the samples were dialyzed against potassium phosphate buffer (25 mM; pH 7.4) at 4 °C for 14 h (three buffer changes). Control enzyme (without inhibitor) was also run through the same procedure and activity of the enzyme was determined before and after the dialysis. Recovery of the catalytic activity enzyme after extensive dialysis of the enzyme-inhibitor mix provided the information about reversibility/irreversibility of binding of the inhibitor with the enzyme.

The target in assay [6] is T1, recombinant human MAO-B. Briefly: Time-dependent enzyme inhibition, MAO-B. In kind it is biochemical. Conditions: pre-incubation 0-15 min; galangin 14.0 μM, apigenin 4.0 μM. The protocol:
as §3, §4

The next assay deals with total MAO (A & B). Set-up: method as in not given. The conditions noted are these: mouse brain crude mitochondrial preparation; earlier study, ref not given; read-out: IC50 for inhibition of total MAO (A & B); cited from earlier work.
Assay [7] addresses T2, recombinant human MAO-A. Briefly: Reversibility of binding by enzyme-inhibitor complex dissociation dialysis, MAO-A. In kind it is biochemical. Conditions: for MAO-A activity recovered after dialysis: overnight dialysis; for Nature of binding with MAO-A: dialysis dissociation. The protocol: as §7, §8
In assay [8] the target is T2, recombinant human MAO-A. Briefly: Enzyme kinetics / inhibition mechanism, MAO-A (Ki, Lineweaver-Burk). It is filed as biochemical. The conditions noted are these: for Ki: kynuramine 1.90-500 μM, SigmaPlot enzyme module, mean ± S.D. of triplicate experiments, read-out: Monoamine Oxidase-A Ki.
Excerpt: as §1, §2

`O=c1cc(-c2ccc(O)cc2)oc2cc(O)cc(O)c12` [Apigenin, apigenin]: the “Monoamine Oxidase-B Type of Inhibition” value is listed as “Competitive/Reversible” on recombinant human MAO-B [1] and “competitive” at recombinant human MAO-B [1] (listed as apigenin). In addition, the Ki at recombinant human MAO-B [1] (kynuramine 1.90-500 μM, SigmaPlot enzyme module, mean ± S.D. of triplicate experiments, read-out: Monoamine Oxidase-B Ki) worked out at 238 ± 24 nM; on recombinant human MAO-A [8] it was 125 ± 14 nM. Further, the “Time-dependence of binding/inhibition of MAO-A” value on recombinant human MAO-A [2] is “not dependent on pre-incubation time”. Besides, the IC50 at recombinant human MAO-B [3] is 1.12 ± 0.27 µM; at recombinant human MAO-A [4], 640 ± 110 nM; in the assay with total MAO (A & B) it was 1000 nM. Also, in the assay with MAO-A, the “Potency of MAO-A inhibition relative to MAO-B” value is given as “about 7.5 fold”. Also, the inhibition at 25 µM on recombinant human MAO-B [5] (25.0 μM inhibitor, 20 min incubation, read-out: Inhibition of catalytic activity of MAO-B before dialysis) is about 90%. Moreover, the “MAO-B activity recovery after dialysis” value at recombinant human MAO-B [5] (25.0 μM inhibitor) is reported as “almost fully recovered”. In addition, the “Time-dependence of binding/inhibition of MAO-B” value at recombinant human MAO-B [6] was “not dependent on pre-incubation time”. In addition, the inhibition at 20 µM on recombinant human MAO-A [7] (20.0 μM inhibitor, 20 min incubation, read-out: Inhibition of catalytic activity of MAO-A before dialysis) is over 88%. Besides, the “MAO-A activity recovered after dialysis” value at recombinant human MAO-A [7] (20.0 μM inhibitor) is about 80%. In addition, the “Nature of binding with MAO-A” value on recombinant human MAO-A [7] was “reversible”. The “Monoamine Oxidase-A Type of Inhibition” value on recombinant human MAO-A [8] is “Competitive/Reversible”; at recombinant human MAO-A [8] (listed as apigenin), “competitive”.

With `O=c1c(O)c(-c2ccc(O)c(O)c2)oc2cc(O)ccc12` [Fisetin hydrate, fisetin], the IC50 at recombinant human MAO-B [3] was over 100 µM; at recombinant human MAO-A [4], 2100 ± 90 nM. Besides, the “Selectivity for MAO-A vs. MAO-B” value at recombinant human MAO-A [4] (MAO-A over MAO-B) is reported as over 47 fold.

`O=c1c(O)c(-c2ccccc2)oc2cc(O)cc(O)c12` [Galangin, galangin]: the “Monoamine Oxidase-B Type of Inhibition” value was “Competitive/Reversible” at recombinant human MAO-B [1] and “competitive” at recombinant human MAO-B [1] (listed as galangin). In addition, the “Time-dependence of binding/inhibition of MAO-A” value at recombinant human MAO-A [2] is on record as “not dependent on pre-incubation time”. Also, the IC50 on recombinant human MAO-A [4] is 130 ± 10 nM. Besides, the “Inhibition of MAO-B enzyme activity before dialysis” value at recombinant human MAO-B [5] (50.0 μM inhibitor, 20 min incubation) is on record as about 58.3. At recombinant human MAO-B [5] (50.0 μM inhibitor), the “MAO-B activity recovery after dialysis” value is reported as “almost completely recovered”. Besides, the “Time-dependence of binding/inhibition of MAO-B” value at recombinant human MAO-B [6] was “not dependent on pre-incubation time”. Besides, at recombinant human MAO-A [7] (10.0 μM inhibitor, 20 min incubation, read-out: Inhibition of catalytic activity of MAO-A before dialysis), the inhibition at 10 µM was over 97%. Also, the “MAO-A activity recovered after dialysis” value on recombinant human MAO-A [7] (10.0 μM inhibitor) is reported as “about 70%”. In addition, at recombinant human MAO-A [7], the “Nature of binding with MAO-A” value is listed as “reversible”. Moreover, the “Monoamine Oxidase-A Type of Inhibition” value at recombinant human MAO-A [8] is given as “Competitive/Reversible”; on recombinant human MAO-A [8] (listed as galangin), “competitive”. For the same compound, the Ki at recombinant human MAO-A [8] stood at 29 ± 4 nM.

`COc1ccc2c(c1)[nH]c1c(C)nccc12` [Harmine, reference compound]: at recombinant human MAO-B [3], the IC50 is 27.5 ± 2.67 µM. Further, the “Monoamine Oxidase-A Type of Inhibition” value on recombinant human MAO-A [8] is listed as “Competitive/Reversible”.

In the case of `O=c1c(O)c(-c2ccc(O)cc2O)oc2cc(O)cc(O)c12` [Morin hydrate, morin], the IC50 was found to be 49.7 ± 0.56 µM at recombinant human MAO-B [3] and 5880 ± 150 nM on recombinant human MAO-A [4]. The “Selectivity for MAO-A vs. MAO-B” value at recombinant human MAO-A [4] (MAO-A over MAO-B) was found to be 9 fold.

Take `O=c1c(O)c(-c2ccc(O)c(O)c2)oc2cc(O)cc(O)c12` [Quercetin, quercetin]: the IC50 at recombinant human MAO-B [3] was determined as 38.7 ± 1.2 µM. For the same compound, at recombinant human MAO-A [4], the “Selectivity for MAO-A vs. MAO-B” value amounted to 15 fold and the IC50 worked out at 2440 ± 120 nM.

For `O=C1c2c(O)cc(O)cc2OC(c2ccc(O)c(O)c2)C1O` (stereo not shown) [Toxifolin, taxifolin], the results for the IC50 at recombinant human MAO-B [3] and at recombinant human MAO-A [4] were 53.8 ± 3.91 µM and 65100 ± 1960 nM, respectively.
